Data: the supplement of paper PMC6045584
± gives the standard deviation of the averaged measurements.

Assays:
[1] = compound: CCC1=C[C@@H]2CN(C1)Cc1c([nH]c3ccccc13)[C@@](C(=O)OC)(c1cc3c(cc1OC)N(C)[C@H]1[C@@](O)(C(=O)OC)[C@H](OC(C)=O)[C@]4(CC)C=CCN5CC[C@]31[C@@H]54)C2 [VINORELBINE]; assay: surviving fraction relative to DMSO-only wells; higher = less growth inhibition; conditions: exposure time: 5 days
Method in brief: (§1)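 Viability values are CellTiter-Glo luminescence readings, given as surviving fraction against the median of DMSO-only wells. The readings were taken after 10 minutes at room temperature, following five days of continuous exposure to inhibitors at 0.5, 1, 5, 10, 50, 100, 500 and 1000 nM that began 24 hours after log-phase tumour cell lines were seeded at 250–500 cells per well in 384-well plates. Every line was screened three times and kept only if replicate Pearson r >0.7 and median Z' >0.3.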

[2] = compound: COc1cc([C@@H]2c3cc4c(cc3[C@@H](O[C@@H]3O[C@@H]5CO[C@@H](C)O[C@H]5[C@H](O)[C@H]3O)[C@H]3COC(=O)[C@H]23)OCO4)cc(OC)c1O [ETOPOSIDE]; assay: as above; conditions: exposure time: 5 days
Method in brief: as §1

Row | Test System | surviving fraction ([1]; 0.5 nM) | surviving fraction ([1]; 1 nM) | surviving fraction ([1]; 5 nM) | surviving fraction ([1]; 10 nM) | surviving fraction ([1]; 50 nM) | surviving fraction ([1]; 100 nM) | surviving fraction ([1]; 500 nM) | surviving fraction ([1]; 1000 nM) | surviving fraction ([2]; 0.5 nM) | surviving fraction ([2]; 1 nM) | surviving fraction ([2]; 5 nM) | surviving fraction ([2]; 10 nM) | surviving fraction ([2]; 50 nM) | surviving fraction ([2]; 100 nM) | surviving fraction ([2]; 500 nM) | surviving fraction ([2]; 1000 nM)
1 | HCT15 LARGE INTESTINE | 1.1 ± 0.066 | 1.06 ± 0.043 | 1.04 ± 0.085 | 0.957 ± 0.058 | 0.99 ± 0.064 | 0.819 ± 0.093 | 0.183 ± 0.026 | 0.106 ± 0.0059 | 1.01 ± 0.037 | 0.981 ± 0.03 | 1.01 ± 0.041 | 1.04 ± 0.046 | 1.007 ± 0.0047 | 1.05 ± 0.033 | 0.704 ± 0.095 | 0.328 ± 0.037
2 | DU4475 BREAST | 0.973 ± 0.088 | 1.01 ± 0.025 | 1.01 ± 0.14 | 0.906 ± 0.095 | 0.403 ± 0.091 | 0.211 ± 0.027 | 0.0703 ± 0.016 | 0.051 ± 0.015 | 0.932 ± 0.028 | 0.97 ± 0.11 | 0.848 ± 0.075 | 0.7 ± 0.089 | 0.257 ± 0.1 | 0.146 ± 0.037 | 0.0573 ± 0.011 | 0.0397 ± 0.0084
3 | SJSA1 BONE | 1.03 ± 0.021 | 1 ± 0.041 | 1.04 ± 0.076 | 0.971 ± 0.033 | 0.499 ± 0.029 | 0.211 ± 0.022 | 0.0877 ± 0.009 | 0.0907 ± 0.0081 | 1.04 ± 0.022 | 1.04 ± 0.058 | 1.06 ± 0.036 | 1.01 ± 0.024 | 1.05 ± 0.03 | 1.02 ± 0.076 | 0.71 ± 0.0095 | 0.503 ± 0.0085
4 | HCC78 LUNG | 0.958 ± 0.18 | 0.806 ± 0.26 | 0.877 ± 0.25 | 0.575 ± 0.15 | 0.0987 ± 0.045 | 0.094 ± 0.016 | 0.0637 ± 0.012 | 0.042 ± 0.011 | 0.952 ± 0.064 | 0.863 ± 0.27 | 1 ± 0.082 | 0.925 ± 0.16 | 0.841 ± 0.11 | 0.649 ± 0.099 | 0.0883 ± 0.027 | 0.089 ± 0.024
5 | HCC1395 BREAST | 1.04 ± 0.21 | 1.09 ± 0.16 | 1.13 ± 0.077 | 1.11 ± 0.031 | 0.952 ± 0.083 | 0.727 ± 0.12 | 0.575 ± 0.16 | 0.467 ± 0.057 | 0.983 ± 0.081 | 0.994 ± 0.1 | 1.02 ± 0.12 | 1 ± 0.12 | 1.06 ± 0.14 | 1.04 ± 0.056 | 0.937 ± 0.12 | 0.926 ± 0.13
6 | NCIH441 LUNG | 1.13 ± 0.13 | 1.11 ± 0.059 | 1.02 ± 0.072 | 0.877 ± 0.029 | 0.4817 ± 0.0045 | 0.422 ± 0.041 | 0.497 ± 0.054 | 0.423 ± 0.044 | 1.03 ± 0.15 | 1.05 ± 0.037 | 1 ± 0.04 | 0.974 ± 0.011 | 1.01 ± 0.053 | 0.829 ± 0.05 | 0.565 ± 0.035 | 0.524 ± 0.016
7 | VCAP PROSTATE | 1.1 ± 0.096 | 1.02 ± 0.035 | 0.64 ± 0.04 | 0.299 ± 0.031 | 0.0883 ± 0.012 | 0.0827 ± 0.021 | 0.122 ± 0.0049 | 0.148 ± 0.022 | 1.19 ± 0.16 | 1.07 ± 0.032 | 1.14 ± 0.11 | 1.14 ± 0.088 | 1.07 ± 0.1 | 1.05 ± 0.092 | 0.541 ± 0.063 | 0.421 ± 0.049
8 | SCC36 HEADNECK | 1.09 ± 0.15 | 0.927 ± 0.057 | 1.09 ± 0.093 | 0.819 ± 0.059 | 0.161 ± 0.0035 | 0.135 ± 0.026 | 0.0993 ± 0.011 | 0.1 ± 0.024 | 1.13 ± 0.12 | 1.05 ± 0.18 | 1.1 ± 0.12 | 1.08 ± 0.1 | 1.02 ± 0.052 | 1.15 ± 0.086 | 0.668 ± 0.035 | 0.512 ± 0.0061
